Laboratory results taken from patent US10647719B2, “Bicyclic compounds as dual ATX/CA inhibitors” (Hoffmann-La Roche Inc., priority 2015, dated 2020).
Where two headings read alike, the source gives them in different places.

How the values were obtained:
[1] = molecular target: Human carbonic anhydrase II (hCA-II) (Homo sapiens (Human), UniProt P00918); assay: Human carbonic anhydrase-II inhibition assay (absorbance, 4-nitrophenyl acetate substrate); format: biochemical
Experimental: Human Carbonic Anhydrase-II Inhibition Assay
Human carbonic anhydrase II (hCA-II) inhibition was measured by an absorbance method using 4-nitrophenyl acetate (4-NPA) as its substrate. 4-NPA can be catalyzed by active hCA II via a zinc-hydroxide mechanism. The nitrophenolate in the products can be ionized to generate a bright yellow anion with high absorbance at 348 to 400 nm, as reported in the literature (Armstrong et al., J. Biol. Chem. 1966, 241, 5137-5149). OD340 nm was chosen for detecting hCA II substrate conversion.
(§1) Assay working solutions were made as follows:
Assay buffer: 50 mM MOPS, 33 mM Na2SO4, 1 mM EDTA, 0.5 mg/ml BSA, pH 7.5;
Enzyme solution: hCA-II (human, full length) stock solution (1.0 mg/mL in 20 mM HEPES, 50 mM NaCl, pH 7.4), diluted to 2133× final concentration in assay buffer;
4-NPA substrate solution: 4-NPA substrate stock solution (250 mM in DMSO, stored at −20° C.), diluted to 50× final concentration in deionized water.
Test compounds (10 mM stock in DMSO, 100 μL) were obtained in […] sample plates (Corning Costar #3655) and diluted to 0.5 mM. Column-wise serial dilutions were made by transferring 20 μL compound solutions to the next column, from column 3 up to 22. After this, 1.2 μL were transferred to 384 well assay plates (Corning Costar #3701). Then 30 μL of 16 nM hCA II solution was added (8 nM final concentration), mixed five times. 30 μL of 4-NPA substrate solution was added (2.5 mM final concentration), mixed five times. Absorbance at 340 nm was then measured immediately as time zero. The assay plates were incubated at room temperature for 1 hour and then measured as time 1 hour (Perkin Elmer EnVision 2103; Filter: Photometric 340; Light intensity 60%; Number of flashes: 10). IC50 values and Ki values were calculated from these readouts.

human ATX = human ATX (Homo sapiens (Human), UniProt Q13822); assay: Human ATX enzyme inhibition assay (fluorescence quenching, MR121 substrate); format: biochemical
Experimental: Human ATX Enzyme Inhibition Assay
ATX inhibition was measured by a fluorescence quenching assay using a specifically labeled substrate analogue (MR121 substrate). To obtain this MR121 substrate, BOC and TBS protected 6-amino-hexanoic acid (R)-3-({2-[3-(2-{2-[2-(2-amino-ethoxy)-ethoxy]-ethoxy}-ethoxy)-propionylamino]-ethoxy}-hydroxy-phosphoryloxy)-2-hydroxy-propyl ester (Ferguson et al., Org Lett 2006, 8 (10), 2023) was labeled with MR121 fluorophore (CAS 185308-24-1, 1-(3-carboxypropyl)-11-ethyl-1,2,3,4,8,9,10,11-octahydro-dipyrido[3,2-b:2′,3′-i]phenoxazin-13-ium) on the free amine of the ethanolamine side and then, after deprotection, subsequently with tryptophan on the side of the aminohexanoic acid.
as §1
Assay buffer (50 mM Tris-HCl, 140 mM NaCl, 5 mM KCl, 1 mM CaCl2, 1 mM MgCl2, 0.01% Triton-X-100, pH 8.0;
ATX solution: ATX (human His-tagged) stock solution (1.08 mg/mL in 20 mM bicine, pH 8.5, 0.15 M NaCl, 10% glycerol, 0.3% CHAPS, 0.02% NaN3), diluted to 1.4-2.5× final concentration in assay buffer;
MR121 substrate solution: MR121 substrate stock solution (800 μM MR121 substrate in DMSO), diluted to 2-5× final concentration in assay buffer.
Test compounds (10 mM stock in DMSO, 8 μL) were obtained in 384 well sample plates (Corning Costar #3655) and diluted with 8 μL DMSO. Row-wise serial dilutions were made by transferring 8 μL cpd solution to the next row up to row O. The compound and control solutions were mixed five times and 2 μL were transferred to 384 well assay plates (Corning Costar #3702). Then, 15 μL of 41.7 nM ATX solution was added (30 nM final concentration), mixed five times and then incubated for 15 minutes at 30° C. 10 μL of MR121 substrate solution was added (1 μM final concentration), mixed 30 times and then incubated for 15 minutes at 30° C.

[2] = hCA II 8 nM, 4-NPA 2.5 mM, absorbance 340 nm, room temperature 1 hour, read-out: CA-II IC50
[3] = human His-tagged ATX 30 nM, MR121 substrate 1 μM, 30° C., read-out: ATX IC50

IC50 [1, 2] | IC50 (human ATX; [3]) | IC50 [1] | IC50 (human ATX) | SMILES
18 nM | 8 nM |  |  | CC(C)(C)C(=O)Nc1cc(C#N)cnc1COC(=O)N1CC2=C(C1)CN(C(=O)c1cc(F)c(S(N)(=O)=O)cc1F)C2 [Example 1.27, [5-cyano-3-(2,2-dimethylpropanoylamino)pyridin-2-yl]methyl 2-(2,5-difluoro-4-sulfamoylbenzoyl)-1,3,4,6-tetrahydropyrrolo[3,4-c]pyrrole-5-carboxylate]
10 nM | 27 nM |  |  | CC(C)(C)C(=O)Nc1cc(C(F)(F)F)cnc1COC(=O)N1CC2=C(C1)CN(C(=O)c1ccc(S(N)(=O)=O)c(F)c1F)C2 [Example 1.09, [3-(2,2-dimethylpropanoylamino)-5-(trifluoromethyl)pyridin-2-yl]methyl 2-(2,3-difluoro-4-sulfamoylbenzoyl)-1,3,4,6-tetrahydropyrrolo[3,4-c]pyrrole-5-carboxylate]
 |  | 24 nM | 1 nM | CC(C)(C)C(=O)Nc1cc(C#N)c(Cl)cc1COC(=O)N1CC2=C(C1)CN(C(=O)c1ccc(S(N)(=O)=O)cn1)C2 [Example 2.00, [5-Chloro-4-cyano-2-(2,2-dimethylpropanoylamino)phenyl]methyl 2-(5-sulfamoylpyridine-2-carbonyl)-1,3,4,6-tetrahydropyrrolo[3,4-c]pyrrole-5-carboxylate]
18 nM | 12 nM |  |  | NS(=O)(=O)c1ccc(C(=O)N2CC3=C(CN(C(=O)c4cc(OCC5CCOCC5)nc(C5CC5)c4)C3)C2)nc1 [Example 1.07, 6-[5-[2-cyclopropyl-6-(oxan-4-ylmethoxy)pyridine-4-carbonyl]-1,3,4,6-tetrahydropyrrolo[3,4-c]pyrrole-2-carbonyl]pyridine-3-sulfonamide]
4 nM | 10 nM |  |  | CC(C)(C)C(=O)Nc1cccnc1COC(=O)N1CC2=C(C1)CN(C(=O)c1ccc(S(N)(=O)=O)cc1F)C2 [Example 1.19, [3-(2,2-dimethylpropanoylamino)pyridin-2-yl]methyl 2-(2-fluoro-4-sulfamoylbenzoyl)-1,3,4,6-tetrahydropyrrolo[3,4-c]pyrrole-5-carboxylate]
 |  | 5 nM | 2 nM | Cc1nnn(Cc2cc(C(F)(F)F)cnc2CCC(=O)N2CC3=C(C2)CN(C(=O)c2ccc(S(N)(=O)=O)cc2F)C3)n1 [Example 3.10, 3-fluoro-4-[2-[3-[3-[(5-methyltetrazol-2-yl)methyl]-5-(trifluoromethyl)pyridin-2-yl]propanoyl]-1,3,4,6-tetrahydropyrrolo[3,4-c]pyrrole-5-carbonyl]benzenesulfonamide]
5 nM | 4 nM |  |  | CC(C)(C)C(=O)Nc1cc(C(F)(F)F)cnc1COC(=O)N1CC2=C(C1)CN(C(=O)c1ccc(S(N)(=O)=O)cc1F)C2 [Example 1.04, [3-(2,2-dimethylpropanoylamino)-5-(trifluoromethyl)pyridin-2-yl]methyl 2-(2-fluoro-4-sulfamoylbenzoyl)-1,3,4,6-tetrahydropyrrolo[3,4-c]pyrrole-5-carboxylate]
7 nM |  |  |  | CC(C)(C)C(=O)Nc1cc(C#N)cnc1COC(=O)N1CC2=C(C1)CN(C(=O)c1ccc(S(N)(=O)=O)cc1F)C2 [Example 1.24, [5-cyano-3-(2,2-dimethylpropanoylamino)pyridin-2-yl]methyl 2-(2-fluoro-4-sulfamoylbenzoyl)-1,3,4,6-tetrahydropyrrolo[3,4-c]pyrrole-5-carboxylate]
17.6 nM | 7 nM |  |  | CC(C)(C)C(=O)Nc1cc(C(F)(F)F)cnc1COC(=O)N1CC2=C(C1)CN(S(=O)(=O)c1ccc(S(N)(=O)=O)cc1F)C2 [Example 5.00, [3-(2,2-dimethylpropanoylamino)-5-(trifluoromethyl)pyridin-2-yl]methyl 5-(2-fluoro-4-sulfamoylphenyl)sulfonyl-1,3,4,6-tetrahydropyrrolo[3,4-c]pyrrole-2-carboxylate]
 |  | 1.2 nM | 11 nM | CC(C)(C)C(=O)Nc1cc(Cl)c(Cl)nc1COC(=O)N1CC2=C(C1)CN(C(=O)c1ccc(S(N)(=O)=O)cc1F)C2 [Example 1.29, [5,6-dichloro-3-(2,2-dimethylpropanoylamino)pyridin-2-yl]methyl 2-(2-fluoro-4-sulfamoylbenzoyl)-1,3,4,6-tetrahydropyrrolo[3,4-c]pyrrole-5-carboxylate]
 |  |  | 3 nM | CC(C)(C)C(=O)Nc1cc(C#N)cnc1COC(=O)N1CC2=C(C1)CN(C(=O)c1ccc(S(N)(=O)=O)c(F)c1F)C2 [Example 1.26, [5-cyano-3-(2,2-dimethylpropanoylamino)pyridin-2-yl]methyl 2-(2,3-difluoro-4-sulfamoylbenzoyl)-1,3,4,6-tetrahydropyrrolo[3,4-c]pyrrole-5-carboxylate]
 |  | 2.5 nM | 5 nM | CC(C)(C)C(=O)Nc1cc(C(F)(F)F)cnc1COC(=O)N1CC2=C(C1)CN(C(=O)c1ncc(S(N)(=O)=O)cc1F)C2 [Example 1.32, [3-(2,2-dimethylpropanoylamino)-5-(trifluoromethyl)pyridin-2-yl]methyl 2-(3-fluoro-5-sulfamoylpyridine-2-carbonyl)-1,3,4,6-tetrahydropyrrolo[3,4-c]pyrrole-5-carboxylate]
20.6 nM | 2 nM |  |  | CC(C)(C)C(=O)Nc1cc(Cl)cnc1COC(=O)N1CC2=C(C1)CN(C(=O)c1ccc(S(N)(=O)=O)c(F)c1)C2 [Example 1.13, [5-chloro-3-(2,2-dimethylpropanoylamino)pyridin-2-yl]methyl 2-(3-fluoro-4-sulfamoylbenzoyl)-1,3,4,6-tetrahydropyrrolo[3,4-c]pyrrole-5-carboxylate]
 |  | 17 nM | 4 nM | NS(=O)(=O)c1ccc(C(=O)N2CC3=C(CN(C(=O)/C=C/c4ccc(OC(F)(F)F)cc4)C3)C2)nc1 [Example 3.03, 6-[2-[(E)-3-[4-(trifluoromethoxy)phenyl]prop-2-enoyl]-1,3,4,6-tetrahydropyrrolo[3,4-c]pyrrole-5-carbonyl]pyridine-3-sulfonamide]
 | 1 nM |  |  | CC(C)(C)C(=O)Nc1cc(C(F)(F)F)cnc1COC(=O)N1CCC2=C(CCN(C(=O)c3ccc(S(N)(=O)=O)cc3F)C2)C1 [Example 1.28, [3-(2,2-dimethylpropanoylamino)-5-(trifluoromethyl)pyridin-2-yl]methyl 6-(2-fluoro-4-sulfamoylbenzoyl)-1,3,4,5,7,8-hexahydro-2,6-naphthyridine-2-carboxylate]
3.6 nM | 3 nM |  |  | CC(C)(C)C(=O)Nc1cc2ccccc2nc1COC(=O)N1CC2=C(C1)CN(C(=O)c1ccc(S(N)(=O)=O)cc1F)C2 [Example 4.01, [3-(2,2-dimethylpropanoylamino)quinolin-2-yl]methyl 2-(2-fluoro-4-sulfamoylbenzoyl)-1,3,4,6-tetrahydropyrrolo[3,4-c]pyrrole-5-carboxylate]
8 nM |  |  |  | CC(C)(C)C(=O)Nc1cc(C#N)cnc1COC(=O)N1CC2=C(C1)CN(C(=O)c1c(F)cc(S(N)(=O)=O)cc1F)C2 [Example 1.25, [5-cyano-3-(2,2-dimethylpropanoylamino)pyridin-2-yl]methyl 2-(2,6-difluoro-4-sulfamoylbenzoyl)-1,3,4,6-tetrahydropyrrolo[3,4-c]pyrrole-5-carboxylate]
